Reference: patent publication US10329289B2, “6,7-dihydro-5H-pyrrolo[3,4-B]pyridin-5-one allosteric modulators of the M4 muscarinic acetylcholine receptor” (Merck Sharp & Dohme Corp., priority 2015, dated 2019)
pEC50: −log10 of the molar value.

What follows are compounds tested against T1, human M4 muscarinic acetylcholine receptor (Homo sapiens, UniProt P08173) (assay: human FLIPR-based M4 PAM assay (Ca2+ mobilization, CHO-K1 cells with human M4 receptor and Gαqi5)). Conditions: acetylcholine at 20% of maximum response, read-out: M4 PAM IP.
T1 construct: expressed in transfected cells; host or cells: CHO-K1
T1 sequence (P08173 1-479): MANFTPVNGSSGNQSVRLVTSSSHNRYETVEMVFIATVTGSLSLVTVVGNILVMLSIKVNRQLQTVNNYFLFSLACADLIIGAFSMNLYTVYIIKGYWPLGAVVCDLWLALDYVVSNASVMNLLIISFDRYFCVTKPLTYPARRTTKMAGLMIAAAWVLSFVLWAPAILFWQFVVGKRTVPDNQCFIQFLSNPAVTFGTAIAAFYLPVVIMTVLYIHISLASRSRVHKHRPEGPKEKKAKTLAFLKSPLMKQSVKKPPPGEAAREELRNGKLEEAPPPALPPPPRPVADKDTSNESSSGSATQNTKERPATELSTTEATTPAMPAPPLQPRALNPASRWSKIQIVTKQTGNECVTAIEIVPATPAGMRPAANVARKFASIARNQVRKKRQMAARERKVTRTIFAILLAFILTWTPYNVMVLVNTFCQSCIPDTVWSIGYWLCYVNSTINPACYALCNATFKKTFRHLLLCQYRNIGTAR
Type: cell-based
In short: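 Calcium-mobilization (FLIPR) readout in dye-loaded CHO-K1 cells co-expressing human M4 receptor and Gαqi5. Potentiation measured against acetylcholine at a concentration giving 20% of maximal response, with an optional 70% addition; the reported value is the curve inflection point from a 4-parameter logistic fit.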

pEC50 | Compound
6.84 | Cc1cc2c(nc1N1CCC(Oc3cnc4c(c3)COC4)CC1)CN(CCO)C2=O [Example 236A, 2-(4-((5,7-dihydrofuro[3,4-b]pyridin-3-yl)oxy)piperidin-1-yl)-6-(2-hydroxyethyl)-3-methyl-6,7-dihydro-5H-pyrrolo[3,4-b]pyridin-5-one]
7.31 | COc1ccc(OC2CCN(c3nc4c(cc3C)C(=O)N(CCO)C4)CC2)cn1 [Example 238, 6-(2-hydroxyethyl)-2-(4-((6-methoxypyridin-3-yl)oxy)piperidin-1-yl)-3-methyl-6,7-dihydro-5H-pyrrolo[3,4-b]pyridin-5-one]
7.07 | Cc1cc2c(nc1N1CCC(Oc3ccc4c(cnn4C)c3)CC1)CN(CCO)C2=O [Example 239A, 6-(2-hydroxyethyl)-3-methyl-2-(4-((1-methyl-1H-indazol-5-yl)oxy)piperidin-1-yl)-6,7-dihydro-5H-pyrrolo[3,4-b]pyridin-5-one]
7.14 | CCN1Cc2nc(N3CCC(Oc4ccccc4)CC3)c(C)cc2C1=O [Example 243, 6-ethyl-3-methyl-2-(4-phenoxypiperidin-1-yl)-6,7-dihydro-5H-pyrrolo[3,4-b]pyridin-5-one]
7.55 | CCN1Cc2nc(N3CCC(Oc4ccc5c(c4)COC5)CC3)c(C)cc2C1=O [Example 244A, 2-(4-((1,3-dihydro-2-benzofuran-5-yl)oxy)piperidin-1-yl)-6-ethyl-3-methyl-6,7-dihydro-5H-pyrrolo[3,4-b]pyridin-5-one]
7.12 | COc1ccc(OC2CCN(c3nc4c(cc3C)C(=O)N(C(C)C)C4)CC2)cn1 [Example 245, 6-isopropyl-2-(4-((6-methoxypyridin-3-yl)oxy)piperidin-1-yl)-3-methyl-6,7-dihydro-5H-pyrrolo[3,4-b]pyridin-5-one]
6.83 | Cc1cc2c(nc1N1CCC(Oc3ccccc3)CC1)CN(C1CC1)C2=O [Example 250, 6-cyclopropyl-3-methyl-2-(4-phenoxypiperidin-1-yl)-6,7-dihydro-5H-pyrrolo[3,4-b]pyridin-5-one]
7.15 | COc1ccc(OC2CCN(c3nc4c(cc3C)C(=O)N(CC3COC3)C4)CC2)cn1 [Example 250A, 2-(4-((6-methoxypyridin-3-yl)oxy)piperidin-1-yl)-3-methyl-6-(oxetan-3-ylmethyl)-6,7-dihydro-5H-pyrrolo[3,4-b]pyridin-5-one]
6.70 | COCCCN1Cc2nc(N3CCC(Oc4ccc(OC)nc4)CC3)c(C)cc2C1=O [Example 251, 6-(3-methoxypropyl)-2-(4-((6-methoxypyridin-3-yl)oxy)piperidin-1-yl)-3-methyl-6,7-dihydro-5H-pyrrolo[3,4-b]pyridin-5-one]
7.03 | COCCN1Cc2nc(N3CCC(Oc4ccc(OC)nc4)CC3)c(C)cc2C1=O [Example 252, 6-(2-methoxyethyl)-2-(4-((6-methoxypyridin-3-yl)oxy)piperidin-1-yl)-3-methyl-6,7-dihydro-5H-pyrrolo[3,4-b]pyridin-5-one]
7.31 | Cc1cc2c(nc1N1CCC(Oc3ccc(F)cc3)CC1)CN(C)C2=O [Example 253, 2-(4-(4-fluorophenoxy)piperidin-1-yl)-3,6-dimethyl-6,7-dihydro-5H-pyrrolo[3,4-b]pyridin-5-one]
7.16 | CCOc1ccc(OC2CCN(c3nc4c(cc3C)C(=O)N(CCO)C4)CC2)cn1 [Example 254, 2-(4-((6-ethoxypyridin-3-yl)oxy)piperidin-1-yl)-6-(2-hydroxyethyl)-3-methyl-6,7-dihydro-5H-pyrrolo[3,4-b]pyridin-5-one]
6.10 | COc1ccc(OC2CCN(c3nc4c(cc3C)C(=O)N(CC3COC3)C4CC3COC3)CC2)cn1 (stereo not shown) [Example 255A, 2-(4-((6-methoxypyridin-3-yl)oxy)piperidin-1-yl)-3-methyl-6,7-bis(oxetan-3-ylmethyl)-6,7-dihydro-5H-pyrrolo[3,4-b]pyridin-5-one]
7.06 | COc1ccc(OC2CCN(c3nc4c(cc3C)C(=O)N(Cc3ccncc3)C4)CC2)cn1 [Example 259, 2-(4-((6-methoxypyridin-3-yl)oxy)piperidin-1-yl)-3-methyl-6-(pyridin-4-ylmethyl)-6,7-dihydro-5H-pyrrolo[3,4-b]pyridin-5-one]

The remaining lines, values behind:

Compound | pEC50
Cc1cc2c(nc1N1CC[C@@H](Oc3ccccc3)[C@@H](F)C1)CN(CCO)C2=O [Example 237, 2-((3S,4R)-3-fluoro-4-phenoxypiperidin-1-yl)-6-(2-hydroxyethyl)-3-methyl-6,7-dihydro-5H-pyrrolo[3,4-b]pyridin-5-one] | 7.17
Cc1cc2c(nc1N1CCC(Oc3cccc(C#N)c3)CC1)CN(CCO)C2=O [Example 239, 3-((1-(6-(2-hydroxyethyl)-3-methyl-5-oxo-6,7-dihydro-5H-pyrrolo[3,4-b]pyridin-2-yl)piperidin-4-yl)oxy)benzonitrile] | 7.44
Cc1cc2c(nc1N1CCC(Oc3ccccc3)CC1)CN(C)C2=O [Example 240, 3,6-dimethyl-2-(4-phenoxypiperidin-1-yl)-6,7-dihydro-5H-pyrrolo[3,4-b]pyridin-5-one] | 7.40
CCc1cc2c(nc1N1CC[C@@H](Oc3ccc4c(cnn4C)c3)[C@@H](F)C1)CN(CCO)C2=O [Example 240A, 3-ethyl-2-((3S,4R)-3-fluoro-4-((1-methyl-1H-indazol-5-yl)oxy)piperidin-1-yl)-6-(2-hydroxyethyl)-6,7-dihydro-5H-pyrrolo[3,4-b]pyridin-5-one] | 6.90
Cc1cc2c(nc1N1CC[C@@H](Oc3ccccc3)[C@@H](F)C1)CN(C)C2=O [Example 241, 2-((3S,4R)-3-fluoro-4-phenoxypiperidin-1-yl)-3,6-dimethyl-6,7-dihydro-5H-pyrrolo[3,4-b]pyridin-5-one] | 7.66
Cc1cc2c(nc1N1CC[C@@H](Oc3ccc4c(cnn4C)c3)[C@H](F)C1)CN(CCO)C2=O [Example 241A, 2-((3R,4R)-3-fluoro-4-((1-methyl-1H-indazol-5-yl)oxy)piperidin-1-yl)-6-(2-hydroxyethyl)-3-methyl-6,7-dihydro-5H-pyrrolo[3,4-b]pyridin-5-one] | 7.03
CCN1Cc2nc(N3CCC(Oc4cccc(C#N)c4)CC3)c(C)cc2C1=O [Example 242, 3-((1-(6-ethyl-3-methyl-5-oxo-6,7-dihydro-5H-pyrrolo[3,4-b]pyridin-2-yl)piperidin-4-yl)oxy)benzonitrile] | 7.13
CCN1Cc2nc(N3CC[C@@H](Oc4ccccc4)[C@@H](F)C3)c(C)cc2C1=O [Example 244, 6-ethyl-2-((3S,4R)-3-fluoro-4-phenoxypiperidin-1-yl)-3-methyl-6,7-dihydro-5H-pyrrolo[3,4-b]pyridin-5-one] | 7.49
Cc1cc2c(nc1N1CCC(Oc3cccc(C#N)c3)CC1)CN(C(C)C)C2=O [Example 246, 3-((1-(6-isopropyl-3-methyl-5-oxo-6,7-dihydro-5H-pyrrolo[3,4-b]pyridin-2-yl)piperidin-4-yl)oxy)benzonitrile] | 6.90
Cc1cc2c(nc1N1CCC(Oc3ccccc3)CC1)CN(C(C)C)C2=O [Example 247, 6-isopropyl-3-methyl-2-(4-phenoxypiperidin-1-yl)-6,7-dihydro-5H-pyrrolo[3,4-b]pyridin-5-one] | 6.86
Cc1cc2c(nc1N1CC[C@@H](Oc3ccccc3)[C@@H](F)C1)CN(C(C)C)C2=O [Example 248, 2-((3S,4R)-3-fluoro-4-phenoxypiperidin-1-yl)-6-isopropyl-3-methyl-6,7-dihydro-5H-pyrrolo[3,4-b]pyridin-5-one] | 7.06
Cc1cc2c(nc1N1CCC(Oc3cccc(C#N)c3)CC1)CN(C1CC1)C2=O [Example 249, 3-((1-(6-cyclopropyl-3-methyl-5-oxo-6,7-dihydro-5H-pyrrolo[3,4-b]pyridin-2-yl)piperidin-4-yl)oxy)benzonitrile] | 7.49
Cc1cc2c(nc1N1CC[C@@H](Oc3ccc4c(c3)COC4)[C@@H](F)C1)CN(CCO)C2=O [Example 255, 2-((3S,4R)-4-((1,3-dihydro-2-benzofuran-5-yl)oxy)-3-fluoropiperidin-1-yl)-6-(2-hydroxyethyl)-3-methyl-6,7-dihydro-5H-pyrrolo[3,4-b]pyridin-5-one] | 7.54
COC(=O)CN1Cc2nc(N3CCC(OCC4(C)CC4)CC3)c(C)c(C)c2C1=O [Example 256, methyl 2-(3,4-dimethyl-2-(4-((1-methylcyclopropyl)methoxy)piperidin-1-yl)-5-oxo-5,7-dihydro-6H-pyrrolo[3,4-b]pyridin-6-yl)acetate] | 7.07
Cc1cc2c(nc1N1CC[C@@H](Oc3ccc4c(c3)COC4)[C@H](F)C1)CN(CCO)C2=O [Example 257, 2-((3R,4R)-4-((1,3-dihydro-2-benzofuran-5-yl)oxy)-3-fluoropiperidin-1-yl)-6-(2-hydroxyethyl)-3-methyl-6,7-dihydro-5H-pyrrolo[3,4-b]pyridin-5-one] | 7.08
CCc1cc2c(nc1N1CCC(Oc3ccc4c(c3)COC4)CC1)CN(CCO)C2=O [Example 258, 2-(4-((1,3-dihydro-2-benzofuran-5-yl)oxy)piperidin-1-yl)-3-ethyl-6-(2-hydroxyethyl)-6,7-dihydro-5H-pyrrolo[3,4-b]pyridin-5-one] | 6.90
Cc1c(N2CCC(OCC3(C)CC3(F)F)CC2)nc2c(c1C)C(=O)N(CCO)C2 (stereo not shown) [Example 259A, 2-(4-((2,2-difluoro-1-methylcyclopropyl)methoxy)piperidin-1-yl)-6-(2-hydroxyethyl)-3,4-dimethyl-6,7-dihydro-5H-pyrrolo[3,4-b]pyridin-5-one] | 6.93
